Test results taken from patent US5695761A, “Suppression of nitric oxide production by osteopontin” (Rutgers University, priority 1993, dated 1997).
Read-outs that look alike come from different tables or passages of the source.

Legend:
[1] = test system: constitutive nitric oxide synthase (cNOS) mRNA; assay: Northern blot analysis of cNOS mRNA in PTE cells; assay type: cell-based, mouse; conditions: 12 h
Description: FIGS. 8A and 8B. Norther blot analysis of constitutive nitric oxide synthase (cNOS) mRNA expression. (A) Autoradiogram of RNA separated by agarose-formaldehyde gel electrophoresis, transfered to nylon membranes, and probed with ^32 P-labelled oligonucleotide probes as described in Example 2, infra. (B) Reltive intensities of cNOS to 18S rRNA quantified by densitometry. Cells were treated with buffer, angiotensin (1 μM), angiotensin with osteopontin (0.1 and 0.001 nM), or ionomycin, as indicated in B. The blots in (A) correspond to the bars in (B).
Northern Blot Analysis. Total RNA was isolated using TRI reagent (Molecular Research Center, Cincinnati, Ohio) after 12 h stimulation in the medium (see Example 1). Rat brain constitutive nitric oxide synthase (cNOS) cDNA was obtained as described (Bredt et al., 1991, Nature 351:714-718). Five μg of total RNA was separated on an agarose-formaldehyde gel, transferred onto a nylon membrane (GeneScreen Plus, NEN Research Products, Du Pont, Boston, Mass.) and hybridized with a ^32 P-labeled cNOS cDNA probe. The blot was washed 3 times with 0.5×SSC, 0.1% SDS at 65° C. and autoradiographed for 1 to 3 days. The membrane was stripped and successively hybridized to a mouse 18S rRNA probe. The relative intensities of cNOS to 18S rRNA in the resulting autoradiograms were quantified by densitometry (Pharmacia LKB, UltraScan XL).

primary mouse PTE cells = assay: Intracellular calcium mobilization (Indo-1 AM) in PTE cells; assay type: cell-based
Description: FIGS. 9A-D. Induction of calcium mobilization by ionomycin, angiotensin II and osteopontin in PTE cells. Cells were incubated with 1 μM Indo-1 AM [1-(2-amino-5-(6-carboxyindol-2-yl)phenoxy)-2-(2'-amino-5'-methylphenoxy)ethane-N,N,N',N'-tetraacetic acid) and analyzed on a Meridian 570 Anchored Cell Analysis System (ACAS) equipped with an Innova 90 5-W laser adjusted to an output of 100 mW. Calcium mobilization was quantified by scanning single 150×150 μm fields containing about 10 cells every 30 s for a total of 10 min and quantifying the emission at 500 nm (calcium-free Indo-1) and 400 nm (calcium-bound Indo-1). After 1 min, the cells were stimulated with (A) control, (B) 10 μM ionomycin, (C) […] angiotensin II, and (D) 2 nM or 0.1 nM OPN.
Measurement of intracellular calcium mobilization. Primary mouse PTE cells were subcultured onto collagen-coated Nunc coverglass chambers (Nunc, Inc., Naperville, Ill.). Intracellular calcium mobilization was monitored using a fluorescent, calcium-sensitive indicator Indo-1-acetoxymethyl ester (Indo-1 AM) (Molecular Probes, Eugene, Oreg.) and qualified on a Meridian 570 Anchored Cell Analysis (ACAS) equipped with an Innova 90-5W laser adjusted to an output of 100 mW. Cells were washed with HBSS containing 0.3% bovine serum albumin (BSA) and incubated with 1 μM Indo-1 AM at 37° C. for 30 min. Then, the cells were washed 3 times and 1 ml of HBSS containing 0.3% BSA was added. The calcium ratio was determined by scanning single 150×150 μm field containing about 10 cells every 30 sec for a total of 10 min and recording the emission at 500 nm (calcium-free Indo-1) and 400 nm (calcium-saturated Indo-1). Intracellular calcium concentrations were determined by generating a standard curve using a known calcium solution (Gardner et al., 1993, J. Leukocyte Biol. 53:190-196). All data were analyzed with Meridian ACAS statistical software.

[2] = test system: mouse primary kidney PTE cells; assay: Nitrite production over 3 days in PTE cells treated with angiotensin II; assay type: cell-based; conditions: for nitrite production: agent alone, 3 days incubation; for effect on A II-induced nitrite production: 3 days incubation with A II
Description: FIG. 7. Angiotensin II enhances nitrite production by a process that can be reversed by OPN in PTE cells. Primary mouse kidney proximal tubule epithelial cells were grown as described in the Examples, infra. Cell were cultured and the medium collected after three days of growth in medium with the indicated supplements.
Preparation of Cells. CD-1 mice aged 4-6 weeks were obtained from Laboratory Animal Services of Nelson Biological Laboratory, Rutgers University, New Jersey. Primary mouse kidney proximal tubule epithelial (PTE) cells were prepared as previously described in Example 1. For NO measurement, cells were subcultured into 24-well tissue culture plates (Linbro, Hamden, Conn.) at 5×10^4 cells per well and incubated overnight for cell attachment. After removal of the medium, the cells were washed twice with Dulbecco's phosphate buffered saline (0.2 g/l KCl, 0.2 g/l KH2 PO4, 8 g/l NaCl, 1.15 g/l Na2 HPO4) and re-fed phenol red-free RPMI 1640 medium (Gibco) containing 10 μg/ml tetrahydrobiopterin (ICN Biochemicals, Cleveland Ohio).
Measurement of NO Production. Synthesis of NO in the medium over a 3-day period was determined by the accumulation of nitrite, a stable oxidized product of NO (Marletta, 1988, Chem. Res. Toxicol. 1:249-257). Nitrite was measured with the Griess reagents using sodium nitrite as standard, as described in Example 1.

[3] = test system: primary mouse kidney proximal tubule epithelial cells; assay: Nitrite accumulation (Griess reagent) in PTE cells stimulated with LPS and γ-IFN; assay type: cell-based; conditions: for effect on LPS and γ-IFN-induced nitrite (NO) production: agent alone on stimulated cells, nitrite at 24 h; for nitrite production relative to the LPS and γ-IFN-stimulated cells: measured at 24 h
Description: Cell culture. […] Clin. Invest. 91:2138-43). Briefly, slices of cortex from decapsulated kidneys were washed in unsupplemented RPMI 1640 and cut int 1-2 mm^3 pieces, which were then incubated for 20 min. at 37° C. in Krebs-Henseleit buffer (Sigma Chemical Co., St. Louis, Mo.) supplemented with 10 mM HEPES (pH 7.5), 1 g/l D-glucose, 200 mg/1 sodium pyruvate, 0.125 mg/ml collagenase (Type 1A, Sigma), and 0.6 U/ml dispase (Boehringer Mannheim Biochemica, Indianapolis, Ind.). The digested cortex was centrifuged at 70×g for 3 min and the cells resuspended in RPMI 1640 supplemented with 10 mM HEPES (pH 7.5), 5 μg/ml human transferrin, 50 nM dexamethasone, 5 μg/ml insulin (Gibco, Gaithersberg, Md.), 3% fetal bovine serum, 100 U/ml penicillin and 100 μg/ml streptomycin. For NO measurements, cells were subcultured into 24-well culture plates (Linbro, Hamden, Conn.) at 5×10^4 cells/16-mm well and incubated overnight. After removal of the medium, the cells were washed 3 times with Dulbecco's phosphate buffered saline (Sigma D5652), and re-fed with phenol red-free RPMI 1640 medium containing 2 mM […] and 10 μg/ml tetrahydrobiopterin (ICN Biochemicals, Cleveland, Ohio) in the presence or absence of 100 ng/ml lipopolysaccharide (LPS) (Sigma) and 100 U/ml recombinant mouse γ-interferon (γ-IFN). Measurement of NO (as NO2^-) production. Nitric oxide is a short-lived reactive nitrogen intermediate that in aqueous solution in the absence of oxyhemoproteins or superoxide, is oxidized primarily to nitrite (Ignarro et al., 1993, Proc. Natl. Acad. Sci. U.S.A. 90:8103-07). Under such conditions NO production can be assessed by the accumulation of nitrite in the medium. […] Biochem. 126:131-138).

rabbit kidney PTE cells = conditions: primary cultures of rabbit kidney PTE cells; Norman et al. 1987; cited from earlier work
osteoclasts = conditions: Zimolo et al. 1993; cited from earlier work
[4] = test system: inducible nitric oxide synthase (iNOS) mRNA; assay: Northern blot analysis of iNOS mRNA in stimulated PTE cells; assay type: cell-based, mouse; conditions: measured at 8 h, subconfluent PTE cells
Description: FIGS. 3A and 3B. Inhibition of inducible NO-synthase (iNOS) gene induction by OPN. A) Northern blot analysis of iNOS mRNA and 18s rRNA levels in primary mouse kidney epithelial cells 8 h after treatment. B) Accumulation of nitrite in the medium 24 h after treatment. Values are the mean±standard error from three separate plates. Lane 1: control; lanes 2, 4 and 5: stimulated with 100 ng/ml LPS plus 100 U/ml γIFN; lanes 3 and 4: treated with 1 pM OPN; lanes 5 and 6: treated with 100 pM OPN.
Northern blot analysis. Total RNA was isolated using the TRI reagent (Molecular Research Center, Cincinnati, Ohio). The RNA (5 μg) was fractionated on formaldehyde-agarose gels, blotted and probed using standard procedures (Sambrook et al., 1989, supra). The mouse cDNA corresponding to the macrophage inducible nitric oxide synthase gene (iNOS) has been described (Lyons, 1992, J. Biol. Chem. 267:6370-74).

iNOS protein = assay: Immunofluorescence analysis of iNOS protein in PTE cells; assay type: cell-based, mouse; conditions: 100 pM OPN, LPS 100 ng/ml and γIFN 100 U/ml, 48 h
Description: FIGS. 4A-D. OPN-induced suppression of iNOS protein in PTE cells. Cells were fixed and permeabilized by incubation of 30 min with 0.4 mM lysophosphatidylcholine in 1% buffered formalin. After washing three times with phosphate-buffered saline, cells were blocked with 0.1% bovine serum albumin in phosphate-buffered saline and then incubated for 4 h first with a 1:10,000 dilution of rabbit peptide antibody to the C-terminal 10 amino acids of iNOS. After washing, the cells were incubated with FITC-conjugated goat-anti rabbit secondary antibody (Cappel, West Chester, Pa.). After an additional 30 min, the cells were washed and analyzed for fluorescence intensity using a Meridian ACAS anchored cell analysis system. A) Upper left, untreated control cells; B) upper right, cells treated for 48 h with LPS (100 ng/ml) and γIFN (100 U/ml); C) lower left, cells treated for 48 h with OPN (100 pM); D) lower right, cells treated for 48 h with LPS, γIFN and OPN. The color bar represents relative fluorescence intensity on the four-decade log scale with white being the most intense.

C[C@H](CCC(=O)O)C[C@H](C)C[C@H](C)C(=O)/C=C(\O)[C@H](C)C[C@H](C)C/C=C/[C@@H](C)[C@@H](O)[C@@H](C)[C@@H](O)C[C@@H]1CC[C@@](C)([C@H]2CC[C@@](C)([C@@H](C)O)O2)O1 [Ionomycin]
cNOS mRNA abundance ([1]; agent alone): greatly increase | calcium mobilization (primary mouse PTE cells; 10 μM ionomycin): an increase in cytosolic free calcium | nitrite production [2]: increased nitrite production

CNC(=N)NCCC[C@H](N)C(=O)O [L-NMA, N^G -methyl-L-arginine, reference compound]
effect on A II-induced nitrite production [2]: inhibited the nitrite production induced by A II | effect on LPS and γ-IFN-induced nitrite (NO) production [3]: Inhibition of nitrite accumulation

A II: angiotensin (the x-mer peptide produced from angiotensinogen), obtained from Sigma (DRVYIHPF; Angiotensin-2; UniProt P01019 25-32, looked up)
concentration necessary to induce a transient rise in cytosolic free calcium (rabbit kidney PTE cells): 5 µM | enhancement of cNOS mRNA ([1]; angiotensin 1 μM, densitometry relative to rRNA): 3.5 fold | calcium mobilization (primary mouse PTE cells): a fast and transient rise in cytosolic free calcium levels | calcium mobilization (primary mouse PTE cells; 1 μM, within 10 min): only a delayed and small transient response in calcium mobilization | nitrite production [2]: dose-dependent increase in nitrite accumulation

Ac-PTVDVPDGRGDSLAYGLRSK-NH2 [OPP]
effect on LPS and γ-IFN-induced nitrite (NO) production [3]: effective at reducing LPS and γ-IFN-induced NO production

OPN (purified from urine): OPN purified from urine, used by Zimolo et al. (cited)
concentration raising intracellular free Ca++ level (osteoclasts): 1 pM

OPN: Recombinant human osteopontin, secreted 44 kDa RGD-containing phosphoprotein, purified from transfected MH2 human embryonic kidney cells
level of the 4 kb mRNA species (iNOS mRNA), normalized to 18 S rRNA ([4]; 1 pM OPN added simultaneously with LPS and γ-IFN): 54% | level of the 4 kb mRNA species (iNOS mRNA), normalized to 18 S rRNA ([4]; 100 pM OPN added simultaneously with LPS and γ-IFN): 31% | effect on amount of A II-induced cNOS mRNA ([1]; OPN 0.1 nM or 1 pM with A II): only a modest effect | concentration dependence of calcium reduction (primary mouse PTE cells; 2 nM compared with 0.1 nM OPN): the smaller concentration of OPN was more potent in reducing calcium levels | calcium mobilization (primary mouse PTE cells; 2 nM or 0.1 nM OPN): a reduction in the cytosolic free calcium | iNOS protein concentration in stimulated cells (iNOS protein): diminished concentration of iNOS protein | effect on A II-induced nitrite production [2]: almost completely blocked | nitrite production relative to the LPS and γ-IFN-stimulated cells ([3]; 1 pM OPN added simultaneously with inducers): 45% | nitrite production relative to the LPS and γ-IFN-stimulated cells ([3]; 100 pM OPN added simultaneously with inducers): 24% | time-dependence of inhibition of NO production ([3]; OPN 100 pM added 60 min prior to γ-IFN and LPS, nitrite after 24 h): more inhibitory than when added simultaneously | effective concentration for suppression of NO production ([3]; confluent cells): required higher concentrations | effective concentration for suppression of NO production ([3]; subconfluent PTE cells): ~ 10 pM
